Reference: patent US20070218150A1, “Active Oxygen Scavenging Agent and Moisturizing Agent Containing Wild Watermelon Extract” (priority 2004, published 2007)

Experiment: active oxygen (hydroxyl radical) scavenging, competitive reaction analysis using salicylic acid oxidation as an index
Type: biochemical
Details: 50 mg/l of citrulline solution; 25 degrees, 90 minutes, pH 7.4
Protocol: The active oxygen scavenging ability of the wild watermelon fruit extract is assayed by competitive reaction analysis using salicylic acid oxidation as an index. Specifically, 2 mM salicylic acid and the wild watermelon fruit extract of various concentrations are dissolved in 50 mM phosphate buffer (pH 7.4). After that, by adding 0.6 mM of hydrogen peroxide, 0.15 mM of FeEDTA and 0.26 mM of ascorbic acid, hydroxyl radical is generated, and reacted at 25 degrees for 90 minutes. Quantitation of dihydroxyl benzoic acid (DHBA) generated by salicylic acid oxidation followed the method as set forth in the literature (Smirnofff and Cumbes (1989) Phytochemistry, 28: 1057-1060.)

## NC(=O)NCCC[C@H](N)C(=O)O [citrulline]
  inhibition of salicylic acid oxidation: 6%
